For data set [1], the target named is T1, cathepsin B (Mus musculus, UniProt P10605).
T1 construct: Cathepsin B activity in the cell medium; endogenous in cells; host or cells: Hepa-1c1c7 (CRL-2026)
The data set can be described thus: Inhibition of cathepsin B activity, TKPTS cells. The format is cell-based. The note with it: TKPTS non-tumour cells. How it is done: (§1) For the determination of the cathepsin B’s inhibition activity, its superficial expression in two tumour cell lines (ACHN and Hepa-1c1c7 cells) and two non-tumour cell lines (TKPTS and FL83B cells) was evaluated by flow cytometry.
(§2) Cathepsin B activity in the cell medium was evaluated by using a fluorogenic substrate: Abz-Gly-Ile-Val-Arg~Ala-Lys(Dnp)-OH. This peptide substrate was purchased from Bachem AG (Bubendorf, Switzerland). The reactions were performed at 40 °C for 10 min [38]. Stock solutions of inhibitory compounds were prepared in DMSO (in a concentration of 10 mM). From these stock solutions, increasing concentrations of the inhibitory compounds (1 and 100 nM) were prepared. […] Fluorescence was measured with excitation/emission wavelength values of 320 and 420 nm, respectively, using the Cary Eclipse fluorescence spectrophotometer (Agilent Technologies, Melbourne, Australia).
(§3) All analyses were performed using version 9.0.0 of GraphPad Prism Software LLC from 1994–2020 (www.graphpad.com, accessed on 2 January 2023). Using non-linear regression, the values of 50% cytotoxic concentration (CC50) and 50% inhibitory concentration (IC50) were determined. In addition, a one-way ANOVA statistical analysis was performed to assess whether the differences between the values were statistically significant (p < 0.05; p < 0.001, Tukey’s multiple comparisons test). All experiments were performed in triplicate.

Data set [2] addresses T1, cathepsin B. The experiment in a line: Inhibition of cathepsin B activity, FL83B cells. The format is cell-based. The note with it: FL83B non-tumour cells. As to the method:
as §1, §2, §3

Data set [3] has as its target T1, cathepsin B. The data set can be described thus: Inhibition of cathepsin B activity, Hepa-1c1c7 cells. The format is cell-based. The settings on record: Hepa-1c1c7 tumour cells. How it is done:
as §1, §2, §3

The next data set concerns C57BL/6 mice. The data set can be described thus: Acute toxicity in vivo. The note with it: 4 mg/kg i.p.; for Physical aspect and weight after the third day of treatment: mice, day 3. As to the method:
Adult male C57BL/6 mice weighing 25–35 g were purchased from the Centre for Laboratory Animals of the Faculty of Medicine from the University Autónoma of Madrid (Spain) and maintained under controlled temperature conditions (22 ± 2 °C), with a constant 12 h light-dark cycle and with access to food and water ad libitum.
Five groups (five mice per group) were selected for this study.
All animals were kept under observation for 7 days, during which their physical aspect, behaviour, and the number of deaths were recorded daily. The negative control (normal saline solution) received only the same quantity of the vehicle (distilled water). These tests were carried out in triplicate. All the surviving animals were euthanised at the end of the study, and their vital organs were individually observed by necropsy and checked for overt pathology.

Data set [4] in a line: SRB viability assay, TKPTS cells. The settings on record: mouse, TKPTS non-tumour cell line, hypoxic conditions (1% O2). The format is cell-based. An excerpt:
(§4) Two tumour cell lines, ACHN (Human kidney carcinoma) and Hepa-1c1c7 (Human liver carcinoma), and two non-tumour cell lines, TKPTS (Mus musculus kidney normal) and FL83B (Mus musculus liver normal), were used in this study. The cell lines were purchased by the company VALORALIA I MÁS D, SL. From LGC Standards, which is the exclusive distributor of American Type Culture Collection (ATTC) products. […] Likewise, Hepa-1c1c7 (CRL-2026 BSL 1) is an epithelial cell line that was isolated from the liver of a patient with hepatoma. On the other hand, TKPTS (CRL-3361 BSL 2) is a normal cell line with epithelial-like morphology that was isolated in 1997 from the proximal tubule of a mouse kidney. Finally, FL83B (CRL-2390 BSL 1) is a hepatocyte cell that was isolated from the liver of a 15- to 17-day-old foetal mouse in 1969. The cells were maintained in a Dulbecco's modified eagle medium (DMEM, Sigma-Aldrich St. Louis, USA) supplemented with 2 mM L-glutamine (AppliChem, Denmark), 10% foetal bovine serum (FBS, Sigma-Aldrich, USA), 100 units/mL of penicillin and 100 µg/mL of streptomycin (Fisher Scientific, Pittsburgh, USA) in culture flasks, in an incubator with a humidified atmosphere containing 5% CO2, at 37 °C under hypoxic conditions (1% O2), managing to mimic the tumour microenvironment in vivo.
(§5) Cells (200 µL, 2 × 10^4 cells/well) were seeded in 96-well plates and were cultured for 12 h at 37 °C under hypoxic conditions (1% O2). Subsequently, the samples dissolved in dimethyl sulfoxide (DMSO ≥ 99.9% Sigma-Aldrich, CAS Number 67-68-5) were added at different concentrations for 72 h. Actinomycin D (ACT ≥ 95% Sigma-Aldrich, CAS Number 50-76-0) was used as a positive control. Cells were then fixed with 10% trichloroacetic acid (TCA ≥ 99.0% Sigma-Aldrich, CAS Number 76-03-9) for 1 h at 4 °C. After washing with distilled water, 100 μL of 0.4% sulforhodamine B (SRB Dye content 75 % Sigma-Aldrich, CAS Number 3520-42-1) in 1% acetic acid (AcOH ≥ 99.0% Sigma-Aldrich, CAS Number 64-19-7) were added to each well and incubated for 20 min. After washing them three times with 1% TCA, the plates were air-dried, and stained cells were dissolved with 100 μL/well of 10 mM unbuffered tris(hydroxymethyl)aminomethane (Tris Base ≥ 99.9% Sigma-Aldrich, CAS Number 77-86-1). The optical density of the microplates was measured at 540 nm, using an ELISA plate reader, SpectraMax® i3, Molecular Devices.
(§6) All analyses were performed using version 9.0.0 of GraphPad Prism Software LLC from 1994–2020 (www.graphpad.com, accessed on 2 January 2023). Using non-linear regression, the values of 50% cytotoxic concentration (CC50) and 50% inhibitory concentration (IC50) were determined. […]
(The SRB assay estimates cell density from bound dye.)

The nature of data set [5]: SRB viability assay, FL83B cells. The format is cell-based. The settings on record: mouse, FL83B non-tumour cell line, hypoxic conditions (1% O2).
From the text: as §4, §5, §6

In a further data set the test system is ACHN cells. The data set can be described thus: SRB viability assay, ACHN cells. The format is cell-based. The settings on record: Homo sapiens, 72 h.
From the text: as §4, §5, §6

The next data set relates to Hepa-1c1c7 cells. The data set can be described thus: SRB viability assay, Hepa-1c1c7 cells. The format is cell-based. The note with it: Mus musculus.
From the text: as §4, §5, §6

For data set [6], the target named is T2, cathepsin B (Homo sapiens, UniProt P07858).
T2 construct: Cathepsin B activity in the cell medium; endogenous in cells; host or cells: ACHN (CRL-1611)
The data set can be described thus: Inhibition of cathepsin B activity, ACHN cells. The settings on record: ACHN tumour cells. The format is cell-based. As to the method:
as §1, §2, §3

[7] abbreviates: TKPTS normal kidney proximal tubule cells.
[8] abbreviates: FL83B normal foetal liver hepatocyte cells.
Setting [9] is: ACHN tumour cell line, SRB, hypoxic conditions (1% O2), read-out: CC50.
[10] abbreviates: Hepa-1c1c7 tumour cell line, SRB, 72 h, hypoxic conditions (1% O2), read-out: CC50.

Entries after “also recorded” stand apart in the source; their conditions may differ. Like-named read-outs stand apart in the source and are kept apart here. Starred links: 1 amine or outer side, 2 acyl side, 3 side chain; linkers in the order of their positions; H or OH if unused. Positions of bridges follow the written chain, without caps; N, C: chain ends. Non-standard residues stand in square brackets, D forms with d. Residues, ends and D or L forms follow the SMILES beside them. Chains are numbered I, II in the order given. Actinocin(9to1) = Cc1c2oc3c(C)ccc(C(=O)[*:1])c3nc-2c(C(=O)[*:2])c(N)c1=O; NMeV = CN[C@H](C(=O)O)C(C)C; Sar = CNCC(=O)O

These results are taken from publication PMC10221466, “Isolation of Nocuolin A and Synthesis of New Oxadiazine Derivatives. Design, Synthesis, Molecular Docking, Apoptotic Evaluation, and Cathepsin B Inhibition” (Marine Drugs, 2023).

T1 sequence (P10605 80-339): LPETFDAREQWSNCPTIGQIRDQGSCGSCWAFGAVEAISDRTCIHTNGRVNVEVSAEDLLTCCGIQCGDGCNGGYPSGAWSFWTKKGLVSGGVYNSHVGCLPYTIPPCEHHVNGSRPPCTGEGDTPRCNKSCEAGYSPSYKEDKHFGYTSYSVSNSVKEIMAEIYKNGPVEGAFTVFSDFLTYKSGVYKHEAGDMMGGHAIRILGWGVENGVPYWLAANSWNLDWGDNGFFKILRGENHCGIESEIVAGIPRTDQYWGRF

Broadly, the Ki is the dissociation constant of the complex between target and ligand, obtained from inhibition or displacement. Lower therefore signals higher affinity. For the compound `CCCNC(=O)[C@H]1O[C@@H]1C(=O)N[C@H](C(=O)N1CCC[C@H]1C(=O)O)[C@@H](C)CC` (relative stereo) [CA 074, reference compound], the Ki at cathepsin B [1] was 2.39 ± 0.12 nM; at cathepsin B [2], 3.08 ± 0.19 nM; on cathepsin B [3], 5.99 ± 0.64 nM. For the same compound, in the data set with C57BL/6 mice, the “Physical aspect and weight after the third day of treatment” value (shortened to “Physical aspect and weight”) is “active and showed no apparent weight loss”.

One may read the CC50 as the concentration that lowers cell viability or growth by half. Turning to `Cc1c2oc3c(C)ccc(C(=O)N[C@@H]4C(=O)N[C@H](C(C)C)C(=O)N5CCC[C@H]5C(=O)N(C)CC(=O)N(C)[C@@H](C(C)C)C(=O)O[C@@H]4C)c3nc-2c(C(=O)N[C@@H]2C(=O)N[C@H](C(C)C)C(=O)N3CCC[C@H]3C(=O)N(C)CC(=O)N(C)[C@@H](C(C)C)C(=O)O[C@@H]2C)c(N)c1=O` [Actinomycin, Actinomycin D, reference compound] (I: T[dV]P[Sar][NMeV] / II: T[dV]P[Sar][NMeV]; ester I:1-I:C, II:1-II:C; linker I:N-II:N via Actinocin(9to1)), the figures for the CC50 at 72 h in data set [4] and in data set [5] were 3 ± 0.5 nM and 6 ± 0.6 nM, respectively. For the same compound, the CC50 with ACHN cells (ACHN) was 9 ± 0.6 nM; with Hepa-1c1c7 cells (Hepa-1c1c7, 72 h) it was 14 ± 0.6 nM.

For `CCCCCC1=NN(C(=O)CCO)O[C@H](CCCCC)C1` [Compound 1, 1-[(6R)-5,6-dihydro-4,6-dipentyl-2H-1,2,3-oxadiazin-2-yl]-3-hydroxypropan-1-one], the CC50 at 72 h in data set [4] (setting [7]) is 1100 ± 50 nM; in data set [5] (setting [8]) it was 2360 ± 100 nM. In addition, the results for the CC50 in the data set on ACHN cells (setting [9]) and in the data set with Hepa-1c1c7 cells (setting [10]) were 760 ± 90 nM and 1250 ± 60 nM, respectively. Moreover, the Ki at cathepsin B [1] worked out at 2.13 ± 0.04 nM; on cathepsin B [2] it was 2.61 ± 0.02 nM; on cathepsin B [6], 3.06 ± 0.13 nM; on cathepsin B [3], 3.37 ± 0.24 nM. For the same compound, the “Physical aspect and weight” value in the data set on C57BL/6 mice is “active and showed no apparent weight loss”.

For `CCCCCC1=NN(C(=O)CCOC(C)=O)O[C@H](CCCCC)C1` [Compound 2, 3-[(6R)-5,6-dihydro-4,6-dipentyl-2H-1,2,3-oxadiazin-2-yl]-3-oxopropyl acetate], the CC50 at 72 h was determined as 1060 ± 40 nM in data set [4] (setting [7]) and 1940 ± 80 nM in [5] (setting [8]). Moreover, the CC50 with ACHN cells (setting [9]) is 220 ± 30 nM; with Hepa-1c1c7 cells (setting [10]), 630 ± 50 nM. The Ki worked out at 0.49 ± 0.05 nM at cathepsin B [1], 0.66 ± 0.09 nM on cathepsin B [2], 5.67 ± 0.68 nM on cathepsin B [6] and 6.59 ± 0.65 nM at cathepsin B [3]. The “Physical aspect and weight” value in the data set on C57BL/6 mice was “weight loss and signs of disease (bowed backs, loss of hair shine, and slow movements)”.

For `CCCCCC1=NN(C(=O)CCOC(=O)CCC(=O)O)O[C@H](CCCCC)C1` [Compound 3, 4-{3-[(6R)-5,6-Dihydro-4,6-dipentyl-2H-1,2,3-oxadiazin-2-yl]-3-oxopropoxy}-4-oxobutanoic acid], the CC50 at 72 h amounted to 1620 ± 60 nM in [4] (setting [7]) and 2800 ± 90 nM in data set [5] (setting [8]). Moreover, the CC50 with ACHN cells (setting [9]) was determined as 730 ± 100 nM; with Hepa-1c1c7 cells (setting [10]), 910 ± 80 nM. The Ki on cathepsin B [1] came out at 3.29 ± 0.4 nM; at cathepsin B [2], 4.55 ± 0.81 nM; at cathepsin B [6] it was 1.52 ± 0.13 nM; on cathepsin B [3], 1.76 ± 0.24 nM. Also, the “Physical aspect and weight” value in the data set on C57BL/6 mice is “active and showed no apparent weight loss”. Besides, the In vivo toxicity entry with C57BL/6 mice (murine model, 4 mg/kg) was “no in vivo toxicity; also recorded: did not show toxicity in vivo”.
